{"source": "ChEMBL document CHEMBL1201862", "about": "“PubChem BioAssay data set” (2004)", "key": {"[1]": {"test": "cells", "assay_type": "functional"}, "[2]": {"biological_target": "Cytochrome P450 2D6 (Homo sapiens, UniProt P10635)", "sequence (P10635 whole entry)": "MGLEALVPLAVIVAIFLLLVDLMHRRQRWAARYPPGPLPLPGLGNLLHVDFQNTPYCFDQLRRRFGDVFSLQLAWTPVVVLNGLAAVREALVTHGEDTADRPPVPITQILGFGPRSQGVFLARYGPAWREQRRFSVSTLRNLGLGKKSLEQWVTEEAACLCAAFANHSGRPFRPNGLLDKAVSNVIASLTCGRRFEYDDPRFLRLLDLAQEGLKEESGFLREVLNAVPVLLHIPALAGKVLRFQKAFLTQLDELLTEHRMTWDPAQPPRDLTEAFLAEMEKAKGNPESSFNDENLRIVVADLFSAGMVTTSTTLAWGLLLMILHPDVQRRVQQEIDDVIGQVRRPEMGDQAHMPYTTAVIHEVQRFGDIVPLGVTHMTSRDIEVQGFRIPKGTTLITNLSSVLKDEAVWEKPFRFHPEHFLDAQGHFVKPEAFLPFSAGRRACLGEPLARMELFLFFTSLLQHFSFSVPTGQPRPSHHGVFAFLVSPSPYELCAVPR"}, "[3]": {"biological_target": "Cytochrome P450 3A4 (Homo sapiens, UniProt P08684)", "sequence (P08684 whole entry)": "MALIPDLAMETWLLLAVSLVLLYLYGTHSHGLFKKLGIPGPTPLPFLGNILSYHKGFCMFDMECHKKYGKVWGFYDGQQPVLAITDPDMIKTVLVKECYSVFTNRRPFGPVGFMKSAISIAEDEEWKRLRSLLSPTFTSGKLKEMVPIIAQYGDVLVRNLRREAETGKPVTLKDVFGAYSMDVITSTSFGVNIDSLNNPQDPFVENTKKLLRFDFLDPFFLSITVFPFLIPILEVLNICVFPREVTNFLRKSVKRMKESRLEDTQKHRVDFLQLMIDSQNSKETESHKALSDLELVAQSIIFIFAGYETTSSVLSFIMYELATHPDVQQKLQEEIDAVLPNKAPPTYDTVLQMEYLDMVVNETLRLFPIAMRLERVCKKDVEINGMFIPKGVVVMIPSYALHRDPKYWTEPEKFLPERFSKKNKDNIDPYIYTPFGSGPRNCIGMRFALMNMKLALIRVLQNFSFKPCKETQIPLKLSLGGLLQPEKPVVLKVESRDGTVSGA"}, "[4]": {"biological_target": "T1, Cytochrome P450 1A2 (Homo sapiens, UniProt P05177)", "T1 sequence (P05177 whole entry)": "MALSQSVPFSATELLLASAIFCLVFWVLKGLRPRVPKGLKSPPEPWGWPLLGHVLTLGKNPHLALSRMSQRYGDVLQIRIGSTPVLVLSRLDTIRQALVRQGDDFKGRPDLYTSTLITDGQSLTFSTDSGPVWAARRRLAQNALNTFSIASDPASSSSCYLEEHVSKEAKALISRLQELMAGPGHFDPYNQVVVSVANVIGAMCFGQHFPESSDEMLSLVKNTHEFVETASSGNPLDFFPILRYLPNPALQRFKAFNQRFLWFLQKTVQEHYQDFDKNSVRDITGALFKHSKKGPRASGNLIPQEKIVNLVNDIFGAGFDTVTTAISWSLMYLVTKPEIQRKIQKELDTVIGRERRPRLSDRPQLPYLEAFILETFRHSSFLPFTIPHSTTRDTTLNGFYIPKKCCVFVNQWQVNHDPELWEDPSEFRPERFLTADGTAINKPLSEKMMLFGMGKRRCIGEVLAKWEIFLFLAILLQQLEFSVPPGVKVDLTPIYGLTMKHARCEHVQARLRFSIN"}, "[5]": {"biological_target": "Cytochrome P450 2C9 (Homo sapiens, UniProt P11712)", "sequence (P11712 whole entry)": "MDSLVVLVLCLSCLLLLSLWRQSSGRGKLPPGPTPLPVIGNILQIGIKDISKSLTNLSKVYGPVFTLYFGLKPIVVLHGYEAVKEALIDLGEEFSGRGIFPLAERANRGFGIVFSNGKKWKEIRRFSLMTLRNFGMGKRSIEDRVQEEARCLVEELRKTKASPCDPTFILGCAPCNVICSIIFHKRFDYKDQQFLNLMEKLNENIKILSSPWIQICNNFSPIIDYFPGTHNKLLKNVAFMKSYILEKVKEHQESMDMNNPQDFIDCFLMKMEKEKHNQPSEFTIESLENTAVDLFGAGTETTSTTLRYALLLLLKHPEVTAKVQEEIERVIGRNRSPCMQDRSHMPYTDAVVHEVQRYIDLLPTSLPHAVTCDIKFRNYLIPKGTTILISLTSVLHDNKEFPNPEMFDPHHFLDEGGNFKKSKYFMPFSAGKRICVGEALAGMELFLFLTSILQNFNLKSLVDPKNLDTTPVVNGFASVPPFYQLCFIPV"}, "[6]": {"biological_target": "Cytochrome P450 2C19 (Homo sapiens, UniProt P33261)", "sequence (P33261 whole entry)": "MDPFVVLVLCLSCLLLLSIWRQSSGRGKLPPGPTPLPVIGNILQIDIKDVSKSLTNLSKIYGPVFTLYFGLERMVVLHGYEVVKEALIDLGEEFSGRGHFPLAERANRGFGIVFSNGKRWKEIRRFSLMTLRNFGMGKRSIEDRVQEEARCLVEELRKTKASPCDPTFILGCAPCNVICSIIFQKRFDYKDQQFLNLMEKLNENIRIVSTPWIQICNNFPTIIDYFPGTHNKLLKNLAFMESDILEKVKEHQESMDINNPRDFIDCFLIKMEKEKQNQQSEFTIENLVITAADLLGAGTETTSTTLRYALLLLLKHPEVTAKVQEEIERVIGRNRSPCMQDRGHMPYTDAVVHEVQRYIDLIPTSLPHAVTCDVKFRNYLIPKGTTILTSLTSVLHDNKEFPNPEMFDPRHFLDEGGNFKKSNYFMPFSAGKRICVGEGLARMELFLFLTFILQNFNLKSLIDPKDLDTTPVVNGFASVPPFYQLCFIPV", "test": "Cytochrome panel assay with activity outcomes. Panel member name: p450-cyp2c19 Compounds with AC50 equal or less than 10 uM are considered active", "assay_type": "functional"}, "[7]": {"test": "viability of uninfected HEp-2 cells – cell-based, HTS, cytotoxicity control for RSV inhibitor project, dose response (AID 2410)", "assay_type": "functional", "conditions": "human respiratory syncytial virus"}, "[8]": {"biological_target": "T2, Corticotropin-releasing factor receptor 2/Corticotropin-releasing factor-binding protein (Homo sapiens, UniProt P24387+Q13324)", "T2 sequence (Q13324 whole entry)": "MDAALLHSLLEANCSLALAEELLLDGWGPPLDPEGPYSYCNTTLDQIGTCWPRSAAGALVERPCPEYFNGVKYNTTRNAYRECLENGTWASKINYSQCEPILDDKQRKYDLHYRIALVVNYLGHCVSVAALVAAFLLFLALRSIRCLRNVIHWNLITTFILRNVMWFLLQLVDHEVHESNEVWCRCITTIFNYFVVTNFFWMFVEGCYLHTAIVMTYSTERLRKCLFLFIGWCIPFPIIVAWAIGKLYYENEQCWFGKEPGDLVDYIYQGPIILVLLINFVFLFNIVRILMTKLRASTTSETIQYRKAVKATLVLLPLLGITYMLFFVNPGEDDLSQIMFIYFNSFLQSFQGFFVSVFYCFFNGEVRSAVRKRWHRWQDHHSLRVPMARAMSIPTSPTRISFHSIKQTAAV", "T2 sequence (P24387 whole entry)": "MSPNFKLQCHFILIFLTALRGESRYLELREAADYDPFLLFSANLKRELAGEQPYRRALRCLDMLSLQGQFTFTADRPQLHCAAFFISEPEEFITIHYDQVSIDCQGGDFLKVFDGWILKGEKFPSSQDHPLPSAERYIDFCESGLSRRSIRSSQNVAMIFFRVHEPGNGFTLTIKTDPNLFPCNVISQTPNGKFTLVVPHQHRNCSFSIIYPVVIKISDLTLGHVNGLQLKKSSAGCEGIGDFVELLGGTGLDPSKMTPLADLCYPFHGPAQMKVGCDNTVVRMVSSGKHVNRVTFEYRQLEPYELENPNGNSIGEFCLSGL", "test": "activators of CRF receptor 2 with binding protein – uHTS hits, confirmation (AID 602473)", "assay_type": "functional", "conditions": "read-out: EC50_Mean"}, "[9]": {"biological_target": "T3, Protein RecA (Mycobacterium tuberculosis, UniProt P9WHJ3)", "T3 sequence (P9WHJ3 whole entry)": "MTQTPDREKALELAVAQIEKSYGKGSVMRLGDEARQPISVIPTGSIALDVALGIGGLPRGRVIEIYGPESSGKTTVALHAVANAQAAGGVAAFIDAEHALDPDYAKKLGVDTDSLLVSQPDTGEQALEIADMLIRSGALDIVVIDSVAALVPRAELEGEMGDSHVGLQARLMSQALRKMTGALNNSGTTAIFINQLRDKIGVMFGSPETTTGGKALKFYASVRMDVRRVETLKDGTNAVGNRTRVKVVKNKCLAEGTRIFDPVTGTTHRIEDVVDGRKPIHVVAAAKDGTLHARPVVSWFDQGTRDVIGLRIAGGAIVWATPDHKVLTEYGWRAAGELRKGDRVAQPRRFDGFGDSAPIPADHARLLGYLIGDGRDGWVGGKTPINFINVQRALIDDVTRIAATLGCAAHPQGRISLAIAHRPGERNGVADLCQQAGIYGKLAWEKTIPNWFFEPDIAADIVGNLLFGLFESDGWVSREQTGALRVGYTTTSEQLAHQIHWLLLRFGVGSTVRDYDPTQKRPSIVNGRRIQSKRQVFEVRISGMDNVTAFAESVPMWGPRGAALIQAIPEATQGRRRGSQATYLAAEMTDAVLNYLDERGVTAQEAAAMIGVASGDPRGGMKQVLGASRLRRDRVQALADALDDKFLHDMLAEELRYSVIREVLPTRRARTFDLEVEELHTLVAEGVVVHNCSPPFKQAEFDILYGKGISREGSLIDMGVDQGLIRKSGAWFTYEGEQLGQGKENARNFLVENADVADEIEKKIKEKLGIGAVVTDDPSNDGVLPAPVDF", "test": "Fluorescence Cell-Free Homogeneous Dose Retest to Identify Inhibitors of RecA-Intein Splicing Activity. [Related pubchem assays (depositor defined):AID2097, AID2223, AID489010, AID492950]", "assay_type": "functional"}}, "note": "Calls of active or inactive are those of the source.", "data": [{"compound": "NC(=O)COC(=O)c1sc2ccccc2c1Cl", "values": [{"measurement": "IC50", "setting": "[1]", "value": "37.6 µM (active)"}]}, {"compound": "COc1ccccc1-c1nc(N2CCOCC2)c2ccccc2n1", "values": [{"measurement": "AC50", "setting": "[2]", "value": "12.6 µM (inconclusive)"}, {"measurement": "AC50", "setting": "[3]", "value": "15.8 µM (inconclusive)"}]}, {"compound": "O=[N+]([O-])c1ccccc1CSc1nc(O)c2nc[nH]c2n1", "values": [{"measurement": "AC50", "setting": "[3]", "value": "3.98 µM (inconclusive)"}]}, {"compound": "CCOc1c2ccc(C(=O)NCc3cc(C(F)(F)F)cc(C(F)(F)F)c3)cc2nn1C", "values": [{"measurement": "AC50", "setting": "[4]", "value": "17.8 µM (inconclusive)"}, {"measurement": "AC50", "setting": "[5]", "value": "31.6 µM (inconclusive)"}, {"measurement": "AC50", "setting": "[2]", "value": "20 µM (inconclusive)"}]}, {"compound": "CCOC(=O)c1nc(O)c2c3c(sc2n1)CC(C)CC3", "note": "(configuration not stated)", "values": [{"measurement": "IC50", "setting": "[1]", "value": "4.55 µM (active)"}]}, {"compound": "CCOC(=O)c1c(C)[nH]c2ccc3c(c12)CN1CCc2cc(OC)ccc2[C@@H]1O3", "values": [{"measurement": "AC50", "setting": "[3]", "value": "2.51 µM (inconclusive)"}, {"measurement": "AC50", "setting": "[6]", "value": "inconclusive"}]}, {"compound": "N#Cc1nc(-c2ccco2)oc1N1CCN(c2cccc(Cl)c2)CC1", "values": [{"measurement": "CC50", "setting": "[7]", "value": "31.8 µM (active)"}]}, {"compound": "Oc1ccc2c3c1O[C@H]1c4[nH]c5ccccc5c4C[C@]4(O)[C@H](C2)N(CC2CC2)CC[C@@]314", "values": [{"measurement": "AC50", "setting": "[3]", "value": "0.01 µM (inconclusive)"}]}, {"compound": "CN(C)c1ccc(/C=C/C(=O)c2ccc(O)cc2)cc1", "values": [{"measurement": "EC50", "setting": "[8]", "value": "5.34 µM (active)"}]}, {"compound": "O=C(c1ccc(Cl)cc1)c1c[nH]c(C(=O)C(Cl)(Cl)Cl)c1", "values": [{"measurement": "EC50", "setting": "[9]", "value": "> 380 µM (inconclusive)"}]}, {"compound": "Cc1ccc(NCCC(=O)c2ccc(Cl)cc2)cc1C", "values": [{"measurement": "AC50", "setting": "[3]", "value": "3.55 µM (inconclusive)"}]}, {"compound": "Clc1ccccc1-c1cc(NCc2cccnc2)ncn1", "values": [{"measurement": "AC50", "setting": "[3]", "value": "10 µM (inconclusive)"}]}, {"compound": "Cc1ccc(-c2nnc(-c3ccc4ccccc4c3)o2)cc1", "values": [{"measurement": "AC50", "setting": "[5]", "value": "5.01 µM (inconclusive)"}, {"measurement": "AC50", "setting": "[3]", "value": "6.31 µM (inconclusive)"}]}, {"compound": "O=C(Nc1ccccc1N1CCOCC1)c1cnccn1", "values": [{"measurement": "AC50", "setting": "[3]", "value": "14.1 µM (inconclusive)"}, {"measurement": "AC50", "setting": "[6]; read-out: AC50", "value": "0.0398 µM (inconclusive)"}]}, {"compound": "CCOC(=O)C1=C(O)/C(=C\\c2ccc(OC)c(OC)c2)N=C1C", "values": [{"measurement": "AC50", "setting": "[4]", "value": "8.91 µM (inconclusive)"}, {"measurement": "AC50", "setting": "[3]", "value": "15.8 µM (inconclusive)"}, {"measurement": "AC50", "setting": "[6]; read-out: AC50", "value": "39.8 µM (inconclusive)"}]}, {"compound": "CCC(=O)Nc1nnc(SCC(=O)c2ccc3c(c2)Cc2ccccc2-3)s1", "values": [{"measurement": "CC50", "setting": "[7]", "value": "42 µM (active)"}]}, {"compound": "COc1cccc(Cn2c(=O)c(-c3ccccc3)nc3cnc(N(C)C)nc32)c1", "values": [{"measurement": "AC50", "setting": "[4]", "value": "10 µM (inconclusive)"}, {"measurement": "AC50", "setting": "[5]", "value": "15.8 µM (inconclusive)"}]}, {"compound": "CCCn1nnnc1NC(=O)c1ccc(C)cc1Cl", "values": [{"measurement": "AC50", "setting": "[4]", "value": "10 µM (inconclusive)"}, {"measurement": "AC50", "setting": "[5]", "value": "0.2 µM (inconclusive)"}]}, {"compound": "Cc1ccc(C(=O)NC(=S)NCC(=O)c2ccccc2)cc1", "values": [{"measurement": "AC50", "setting": "[4]", "value": "2.24 µM (inconclusive)"}, {"measurement": "AC50", "setting": "[5]", "value": "2.51 µM (inconclusive)"}, {"measurement": "AC50", "setting": "[3]", "value": "8.91 µM (inconclusive)"}]}, {"compound": "Brc1c(CSc2nncc3ccccc23)nc2ccccn12", "values": [{"measurement": "IC50", "setting": "[1]", "value": "5.43 µM (active)"}]}, {"compound": "O=C(C1CCCN(c2ncnc3c2nc2n3CCCCC2)C1)N1CCN(c2cccc(Cl)c2)CC1", "note": "(configuration not stated)", "values": [{"measurement": "CC50", "setting": "[7]", "value": "11.7 µM (active)"}]}, {"compound": "CN(C)Cc1ccccc1-c1nc(NCc2cccs2)c2ccccc2n1", "values": [{"measurement": "AC50", "setting": "[3]", "value": "6.31 µM (inconclusive)"}]}, {"compound": "COc1ccc(NC(=O)N2CC[C@@]3(CCCN(S(C)(=O)=O)C3)C2)cc1", "values": [{"measurement": "AC50", "setting": "[4]", "value": "25.1 µM (inconclusive)"}, {"measurement": "AC50", "setting": "[3]", "value": "39.8 µM (inconclusive)"}]}, {"compound": "O=C(Nc1ccc(F)cc1F)c1cc2ccccc2oc1=O", "values": [{"measurement": "IC50", "setting": "[1]", "value": "39.7 µM (active)"}]}]}
